The record followed here is patent publication US12534501B2, “Targeting deregulated Wnt signaling in cancer using stabilized alpha-helices of BCL-9” (Dana-Farber Cancer Institute, Inc., priority 2011, dated 2026).

For one experiment, the target named is T1, β-catenin (Homo sapiens, UniProt P35222).
T1 construct: endogenous in cells; host or cells: Colo320
T1 sequence (P35222 1-781): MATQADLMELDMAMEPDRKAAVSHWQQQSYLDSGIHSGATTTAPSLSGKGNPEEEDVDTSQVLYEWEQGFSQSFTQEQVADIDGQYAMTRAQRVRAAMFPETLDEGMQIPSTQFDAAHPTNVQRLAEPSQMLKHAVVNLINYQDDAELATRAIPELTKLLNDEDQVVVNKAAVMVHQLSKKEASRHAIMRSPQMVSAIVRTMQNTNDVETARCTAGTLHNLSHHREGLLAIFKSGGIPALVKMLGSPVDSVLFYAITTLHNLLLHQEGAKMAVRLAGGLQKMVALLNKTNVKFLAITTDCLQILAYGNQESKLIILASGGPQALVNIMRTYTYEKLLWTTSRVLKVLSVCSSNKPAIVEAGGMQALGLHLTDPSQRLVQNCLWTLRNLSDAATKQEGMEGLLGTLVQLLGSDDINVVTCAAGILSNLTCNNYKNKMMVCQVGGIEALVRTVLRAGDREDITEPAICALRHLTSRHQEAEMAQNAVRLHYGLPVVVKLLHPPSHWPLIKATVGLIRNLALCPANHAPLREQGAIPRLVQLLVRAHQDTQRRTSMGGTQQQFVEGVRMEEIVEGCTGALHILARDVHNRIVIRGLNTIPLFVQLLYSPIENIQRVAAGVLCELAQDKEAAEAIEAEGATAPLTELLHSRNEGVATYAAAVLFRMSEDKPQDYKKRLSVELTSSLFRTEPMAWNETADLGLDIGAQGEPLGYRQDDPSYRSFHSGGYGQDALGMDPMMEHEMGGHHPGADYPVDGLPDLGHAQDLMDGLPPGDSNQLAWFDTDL
The experiment is described as follows: Anti-FITC / anti-β-catenin co-immunoprecipitation from lysates of peptide-treated cells. The format is cell-based. Conditions: FITC and β-catenin immunoprecipitation, in situ. From the text: Western blotting, performed as described (Sukhdeo, K. et al. Proc Natl Acad Sci USA 104, 7516-21 (2007)), employed the following primary antibodies: BCL9 (6109) (Mani, M. et al. Cancer Res 69, 7577-86 (2009)), BCL9 (ab37305, Abcam), B9L (AF4967, R&D Systems), β-catenin (CAT5-H10, Zymed), FITC (ab19224, Abcam), Actin-HRP (C-11, Santa Cruz), Caspase3 (#9662, Cell Signaling), IκBα (#9242, Cell signaling), PARP (#9542, Cell Signaling), E-cadherin (#3195, Cell Signaling), and Lamin B (sc-6217, Santa Cruz). Horseradish peroxidase conjugated secondary antibodies were purchased from Santa Cruz and SouthernBiotech. Co-immunoprecipitation was performed as described (Walensky, L. D. et al. Science 305, 1466-70 (2004)). Briefly, cells were lysed in 50 mM Tris, 150 mM NaCl, and 1% CHAPS buffer containing protease and phosphatase inhibitors. Lysates were precleared with Protein A/G PLUS-agarose beads (Santa Cruz Biotechnologies) for 3 hours followed by overnight incubation at 4° C. with the respective antibodies. Agarose A/G beads were then added for 4 h, pelleted, and washed as described (Walensky, L. D. et al. Science 305, 1466-70 (2004)). See results in FIG. 1D, FIG. 1H, FIG. 2A, FIG. 8.

In experiment [1] the test system is TCF regulatory sequences (7×TdG) in Colo320 cells. The experiment is described as follows: dGFP reporter under TCF regulatory sequences (7×TdG). The format is cell-based. An excerpt: A lentiviral reporter vector containing seven TCF/LEF-1 binding motifs and a minimal promoter driving destabilized GFP expression (7×TdG) was derived from the lentiviral vector TOP-dGFP, which contains three TCF/LEF-1 binding motifs (Sukhdeo, K. et al. Proc Natl Acad Sci USA 104, 7516-21 (2007)). Two synthetic complementary oligonucleotides (IDT-DNA) with four TCF/LEF-1 binding motifs (GATCAAAGG) were designed to generate compatible overhanging ends for annealing to an Xba1 restriction site. The oligonucleotides were annealed by heating to 95° C. and slow cooling to room temperature, followed by ligating into the Xba1-linearized TOP-dGFP vector, yielding 7×TdG. For construction of the control vector carrying seven FOP-sites (7×FdG), the 7×TOP cassette was removed from the 7×TdG vector by restriction digesting with Xma1 and Age1. A synthetic cassette carrying seven FOP sites (GGCCAAAGG) but otherwise identical to the removed 7×TOP cassette was inserted, yielding 7×FdG. BCL9 shRNA and control shRNA lentiviral vectors were generated as reported (Sampietro, J. et al. Mol Cell 24, 293-300 (2006)). See results in FIG. 10, FIG. 11B. […]
Colo320 cells were subjected to infection for 72 h with either 7×TdG or 7×FdG lentivirus, and the transduced and control non-transduced cells were trypsinized, washed, and then analyzed on a FACSaria flow sorter. […]

Numbered stars: 1 amine (or outer) side, 2 acyl side, 3 side chain; on linkers, the order of the positions; unused ones are H or OH. Bridge positions count the residues as written; N and C are the ends. Square brackets hold non-standard residues; d marks the D form. Peptide text beside a SMILES is read from it. ξ: configuration not given here. ξαMeNle(6-ylidene) = CC(CCCC=[*:3])(N[*:1])C(=O)[*:2]; Nle = CCCC[C@H](N)C(=O)O

For the compound “SAH-BCL9B(R359E): SEQ ID NO: 7: LSQEQLEHEERSLXTLRXIQRBLF; reverse polarity point mutant, negative control of SAH-BCL9B”, the “β-catenin interaction by co-immunoprecipitation” value with β-catenin was “impaired β-catenin interaction”. Further, the dGFP expression entry in experiment [1] is “little to no effect”.
As to `CCCC[C@H](NC(=O)[C@H](CCCNC(=N)N)NC(=O)[C@H](CCC(N)=O)NC(=O)[C@@H](NC(=O)C1(C)CCCC=CCCCC(C)(NC(=O)[C@H](CC(C)C)NC(=O)[C@H](CO)NC(=O)[C@H](CCCNC(=N)N)NC(=O)[C@H](CCC(=O)O)NC(=O)[C@H](CCCNC(=N)N)NC(=O)[C@H](Cc2c[nH]cn2)NC(=O)[C@H](CCC(=O)O)NC(=O)[C@H](CC(C)C)NC(=O)[C@H](CCC(N)=O)NC(=O)[C@H](CCC(=O)O)NC(=O)[C@H](CCC(N)=O)NC(=O)[C@H](CO)NC(=O)[C@H](CC(C)C)NC(C)=O)C(=O)N[C@@H]([C@@H](C)O)C(=O)N[C@@H](CC(C)C)C(=O)N[C@@H](CCCNC(=N)N)C(=O)N1)[C@@H](C)CC)C(=O)N[C@@H](CC(C)C)C(=O)N[C@@H](Cc1ccccc1)C(N)=O` (stereo partly shown) [SAH-BCL9B] (Ac-LSQEQLEHRERSL[ξαMeNle(6-ylidene)]TLR[ξαMeNle(6-ylidene)]IQR[Nle]LF-NH2; staple 14-18), at β-catenin, the “β-catenin interaction by co-immunoprecipitation” value is “most effective β-catenin interactor in situ”. The dGFP expression result in experiment [1] is given as “dose-responsively blocked dGFP expression”.
